What was measured:
Assay in all cases: relative viability (nuclei count vs DMSO), 5 days (fraction); higher = more cells survive
RAF265 + Alpelisib = compound: Cn1c(Nc2ccc(C(F)(F)F)cc2)nc2cc(Oc3ccnc(-c4ncc(C(F)(F)F)[nH]4)c3)ccc21 [RAF265] + Cc1nc(NC(=O)N2CCC[C@H]2C(N)=O)sc1-c1ccnc(C(C)(C)C(F)(F)F)c1 [Alpelisib] (partner 2 µM)
Summary of the method: (§1)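 Lung cancer cell lines were pin-tool dosed in 1536-well plates on the day after seeding, with either a lone drug or a fixed anchor-drug dose plus five library-drug doses (not always all listed) in √10 steps. Nuclei were counted on 4× images after 5 days. Relative viability is the ratio of treated-well to vehicle-well nuclei counts, with each value a median of duplicate plates.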

RAF265 + Crizotinib = compound: Cn1c(Nc2ccc(C(F)(F)F)cc2)nc2cc(Oc3ccnc(-c4ncc(C(F)(F)F)[nH]4)c3)ccc21 [RAF265] + C[C@@H](Oc1cc(-c2cnn(C3CCNCC3)c2)cnc1N)c1c(Cl)ccc(F)c1Cl [Crizotinib] (partner 1 µM)
Summary of the method: as §1

RAF265 + Foretinib = compound: Cn1c(Nc2ccc(C(F)(F)F)cc2)nc2cc(Oc3ccnc(-c4ncc(C(F)(F)F)[nH]4)c3)ccc21 [RAF265] + COc1cc2c(Oc3ccc(NC(=O)C4(C(=O)Nc5ccc(F)cc5)CC4)cc3F)ccnc2cc1OCCCN1CCOCC1 [Foretinib] (partner 0.25 µM)
Summary of the method: as §1

RAF265 + OSI-027 = compound: Cn1c(Nc2ccc(C(F)(F)F)cc2)nc2cc(Oc3ccnc(-c4ncc(C(F)(F)F)[nH]4)c3)ccc21 [RAF265] + COc1cccc2cc(-c3nc([C@H]4CC[C@H](C(=O)O)CC4)n4ncnc(N)c34)[nH]c12 [OSI-027] (partner 0.5 µM)
Summary of the method: as §1

Row | Cell Line | relative viability (RAF265 + Alpelisib; first compound 0.01 µM) | relative viability (RAF265 + Alpelisib; first compound 0.03162 µM) | relative viability (RAF265 + Alpelisib; first compound 0.1 µM) | relative viability (RAF265 + Alpelisib; first compound 0.3162 µM) | relative viability (RAF265 + Alpelisib; first compound 1 µM) | relative viability (RAF265 + Crizotinib; first compound 0.01 µM) | relative viability (RAF265 + Crizotinib; first compound 0.03162 µM) | relative viability (RAF265 + Crizotinib; first compound 0.1 µM) | relative viability (RAF265 + Crizotinib; first compound 0.3162 µM) | relative viability (RAF265 + Crizotinib; first compound 1 µM) | relative viability (RAF265 + Foretinib; first compound 0.01 µM) | relative viability (RAF265 + Foretinib; first compound 0.03162 µM) | relative viability (RAF265 + Foretinib; first compound 0.1 µM) | relative viability (RAF265 + Foretinib; first compound 0.3162 µM) | relative viability (RAF265 + Foretinib; first compound 1 µM) | relative viability (RAF265 + OSI-027; first compound 0.01 µM) | relative viability (RAF265 + OSI-027; first compound 0.03162 µM) | relative viability (RAF265 + OSI-027; first compound 0.1 µM) | relative viability (RAF265 + OSI-027; first compound 0.3162 µM) | relative viability (RAF265 + OSI-027; first compound 1 µM)
1 | NCI-H2405 | 0.808 | 0.858 | 0.863 | 0.712 | 0.297 | 0.846 | 0.803 | 0.872 | 0.756 | 0.566 | 1.03 | 1.01 | 1 | 0.935 | 0.701 | 0.601 | 0.626 | 0.621 | 0.611 | 0.366
2 | NCI-H3122 | 0.909 | 0.868 | 0.783 | 0.559 | 0.417 | 0.305 | 0.287 | 0.305 | 0.251 | 0.283 | 0.963 | 1 | 1 | 0.953 | 0.635 | 0.971 | 1.1 | 0.948 |  | 0.42
3 | PC-3 [JPC-3] | 1 | 0.993 | 1.08 | 0.331 | 0.644 | 0.989 | 0.986 | 1.06 | 0.417 | 0.63 | 1.04 | 1.07 | 1.12 |  | 0.595 | 0.84 | 0.655 | 0.746 |  | 0.567
4 | PC-14 | 0.964 | 0.907 | 0.854 | 0.35 | 0.579 | 0.872 | 0.818 | 0.995 |  | 0.68 | 0.969 | 1.01 | 0.928 |  | 0.817 | 0.813 | 0.734 | 0.787 |  | 0.48

Reference: the supplement of paper PMC10307832
